Patent US6610677B2, “Pyrazole compounds useful as protein kinase inhibitors” (Vertex Pharmaceuticals Incorporated, priority 2000, dated 2003)

molecular target: T1, GSK-3β (AA 1-420) (Homo sapiens, UniProt P49841); assay: Ki determination for the inhibition of GSK-3 (coupled enzyme system); type: biochemical; settings: 20 μM ATP, 300 μM peptide, 20 nM GSK-3β, 30° C
T1 construct: GSK-3β (AA 1-420)
Description: Compounds were screened for their ability to inhibit GSK-3β (AA 1-420) activity using a standard coupled enzyme system (Fox et al. (1998) Protein Sci. 7, 2249). Reactions were carried out in a solution containing 100 mM HEPES (pH 7.5), 10 mM MgCl2, 25 mM NaCl, 300 μM NADH, 1 mM DTT and 1.5% DMSO. Final substrate concentrations in the assay were 20 μM ATP (Sigma Chemicals, St Louis, Mo.) and 300 μM peptide (HSSPHQS(PO3H2)EDEEE, American Peptide, Sunnyvale, Calif.). Reactions were carried out at 30° C. and 20 nM GSK-3β. Final concentrations of the components of the coupled enzyme system were 2.5 mM phosphoenolpyruvate, 300 μM NADH, 30 μg/ml pyruvate kinase and 10 μg/ml lactate dehydrogenase.
An assay stock buffer solution was prepared containing all of the reagents listed above with the exception of ATP and the test compound of interest. The assay stock buffer solution (175 μl) was incubated in a 96 well plate with 5 μl of the test compound of interest at final concentrations spanning 0.002 μM to 30 μM at 30° C. for 10 min. Typically, a 12 point titration was conducted by preparing serial dilutions (from 10 mM compound stocks) with DMSO of the test compounds in daughter plates. The reaction was initiated by the addition of 20 μl of ATP (final concentration 20 μM). Rates of reaction were obtained using a Molecular Devices Spectramax plate reader (Sunnyvale, Calif.) over 10 min at 30° C. The Ki values were determined from the rate data as a function of inhibitor concentration.

T1 sequence (P49841 whole entry, the tested form may be a part): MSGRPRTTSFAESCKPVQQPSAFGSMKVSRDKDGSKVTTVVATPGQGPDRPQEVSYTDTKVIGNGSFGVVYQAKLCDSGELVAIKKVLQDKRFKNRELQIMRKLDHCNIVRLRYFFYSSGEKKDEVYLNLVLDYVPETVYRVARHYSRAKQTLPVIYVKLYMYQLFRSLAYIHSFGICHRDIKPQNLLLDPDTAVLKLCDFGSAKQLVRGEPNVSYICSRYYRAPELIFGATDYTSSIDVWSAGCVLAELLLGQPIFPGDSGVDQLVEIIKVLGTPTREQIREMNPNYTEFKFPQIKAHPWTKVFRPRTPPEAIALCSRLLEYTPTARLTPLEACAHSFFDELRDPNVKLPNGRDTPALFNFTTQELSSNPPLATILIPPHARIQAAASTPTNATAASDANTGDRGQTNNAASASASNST

| Compound | Ki |
| --- | --- |
| Fc1cc(F)c2[nH]nc(Nc3nc(-c4ccccc4C(F)(F)F)cc4ccccc34)c2c1 [Compound V-3, (5,7-Difluoro-1H-indazol-3-yl)-[3-(2-trifluoromethyl-phenyl)-isoquinolin-1-yl]-amine] | < 100 nM |
| FC(F)(F)c1ccccc1-c1cc(Nc2n[nH]c3ccccc23)c2ccccc2n1 [Compound V-7, (1H-Indazol-3-yl)-[2-(2-trifluoromethyl-phenyl)-quinolin-4-yl]-amine] | 100 to 1000 nM |
| Fc1cc(F)c2[nH]nc(Nc3cc(-c4ccccc4C(F)(F)F)nc4ccccc34)c2c1 [Compound V-8, (5,7-Difluoro-1H-indazol-3-yl)-[2-(2-trifluoromethyl-phenyl)-quinolin-4-yl]-amine] | 1000 to 20000 nM |
| Clc1ccccc1-c1nc2c(c(Nc3n[nH]c4ccccc34)n1)CCCCC2 [II-2, [2-(2-Chloro-phenyl)-6,7,8,9-tetrahydro-5H-cycloheptapyrimidin-4-yl]-(1H-indazol-3-yl)-amine] | < 100 nM |
| Fc1ccc2[nH]nc(Nc3nc(-c4ccccc4C(F)(F)F)nc4c3CCNC4)c2c1 [II-3, (5-Fluoro-1H-indazol-3-yl)-[2-(2-trifluoromethyl-phenyl)-5,6,7,8-tetrahydro-pyrido[3,4-d]pyrimidin-4-yl]-amine] | < 100 nM |
| Fc1cccc2c(Nc3nc(-c4ccccc4Cl)nc4c3CCCCC4)n[nH]c12 [II-4, [2-(2-Chloro-phenyl)-6,7,8,9-tetrahydro-5H-cycloheptapyrimidin-4-yl]-(7-fluoro-1H-indazol-3-yl)-amine] | < 100 nM |
| Fc1ccc2[nH]nc(Nc3nc(-c4ccccc4Cl)nc4c3CCCCC4)c2c1 [II-5, [2-(2-Chloro-phenyl)-6,7,8,9-tetrahydro-5H-cycloheptapyrimidin-4-yl]-(5-fluoro-1H-indazol-3-yl)-amine] | < 100 nM |
| Fc1cc(F)c2[nH]nc(Nc3nc(-c4ccccc4Cl)nc4c3CCCCC4)c2c1 [II-6, [2-(2-Chloro-phenyl)-6,7,8,9-tetrahydro-5H-cycloheptapyrimidin-4-yl]-(5,7-difluoro-1H-indazol-3-yl)-amine] | < 100 nM |
| Fc1cccc2c(Nc3nc(-c4ccccc4C(F)(F)F)nc4c3CCCC4)n[nH]c12 [II-7, (7-Fluoro-1H-indazol-3-yl)-[2-(2-trifluoromethyl-phenyl)-5,6,7,8-tetrahydroquinazolin-4-yl]-amine] | < 100 nM |
| Fc1ccc2[nH]nc(Nc3nc(-c4ccccc4C(F)(F)F)nc4c3CCCC4)c2c1 [II-8, (5-Fluoro-1H-indazol-3-yl)-[2-(2-trifluoromethyl-phenyl)-5,6,7,8-tetrahydroquinazolin-4-yl]-amine] | < 100 nM |
| Fc1cc(F)c2[nH]nc(Nc3nc(-c4ccccc4C(F)(F)F)nc4c3CCCC4)c2c1 [II-9, (5,7-Difluoro-1H-indazol-3-yl)-[2-(2-trifluoromethyl-phenyl)-5,6,7,8-tetrahydroquinazolin-4-yl]-amine] | < 100 nM |
| Fc1cc(F)c2[nH]nc(Nc3nc(-c4ccccc4C(F)(F)F)nc4c3CCCCC4)c2c1 [II-11, (5,7-difluoro-1H-indazol-3-yl)-[2-(2-trifluoromethyl-phenyl)-6,7,8,9-tetrahydro-5H-cycloheptapyrimidin-4-yl]-amine] | < 100 nM |
| Fc1ccc2[nH]nc(Nc3nc(-c4ccccc4C(F)(F)F)nc4c3CN(Cc3ccccc3)CC4)c2c1 [II-12, (6-Benzyl-2-(2-trifluoromethyl-phenyl)-5,6,7,8-tetrahydro-pyrido[4,3-d]pyrimidin-4-yl)-(5-fluoro-1H-indazol-3-yl)-amine] | < 100 nM |
| FC(F)(F)c1ccccc1-c1nc2c(c(Nc3n[nH]c4ccccc34)n1)CCCCC2 [II-13, (1H-Indazol-3-yl)-[2-(2-trifluoromethyl-phenyl)-6,7,8,9-tetrahydro-5H-cycloheptapyrimidin-4-yl]-amine] | < 100 nM |
| Fc1cccc2c(Nc3nc(-c4ccccc4C(F)(F)F)nc4c3CCCCC4)n[nH]c12 [II-14, (7-Fluoro-1H-indazol-3-yl)-[2-(2-trifluoromethyl-phenyl)-6,7,8,9-tetrahydro-5H-cycloheptapyrimidin-4-yl]-amine] | < 100 nM |
| Fc1ccc2[nH]nc(Nc3nc(-c4ccccc4C(F)(F)F)nc4c3CCCCC4)c2c1 [II-15, (5-Fluoro-1H-indazol-3-yl)-[2-(2-trifluoromethyl-phenyl)-6,7,8,9-tetrahydro-5H-cycloheptapyrimidin-4-yl]-amine] | < 100 nM |
| Fc1ccc2[nH]nc(Nc3nc(-c4ccccc4C(F)(F)F)nc4c3CNCC4)c2c1 [II-16, (5-Fluoro-1H-indazol-3-yl)-[2-(2-trifluoromethyl-phenyl)-5,6,7,8-tetrahydro-pyrido[4,3-d]pyrimidin-4-yl]-amine] | < 100 nM |
| FC(F)(F)c1ccccc1-c1nc2c(c(Nc3n[nH]c4ccccc34)n1)CCCC2 [II-17, (1H-indazol-3-yl)-[2-(2-trifluoromethyl-phenyl)-5,6,7,8-tetrahydroquinazolin-4-yl]-amine] | < 100 nM |

| Compound | Ki |
| --- | --- |
| Fc1ccc2[nH]nc(Nc3nc(-c4ccccc4C(F)(F)F)nc4c3CCN(Cc3ccccc3)C4)c2c1 [II-18] | < 100 nM |
| FC(F)(F)c1ccccc1-c1nc(Nc2n[nH]c3ccccc23)cc(-c2ccccn2)n1 [II-22, (1H-Indazol-3-yl)-[6-(pyridin-2-yl)-2-(2-trifluoromethyl-phenyl)-pyrimidin-4-yl]-amine] | 100 to 1000 nM |
| FC(F)(F)c1ccccc1-c1nc(Nc2n[nH]c3ccccc23)cc(-c2ccccc2Cl)n1 [II-23, [6-(2-Chlorophenyl)-2-(2-trifluoromethyl-phenyl)-pyrimidin-4-yl]-(1H-indazol-3-yl)-amine] | < 100 nM |
| Cc1nc(-c2ccccc2Cl)nc(Nc2n[nH]c3ccccc23)c1C [II-26, [2-(2-Chlorophenyl)-5,6-dimethyl-pyrimidin-4-yl]-(1H-indazol-3-yl)-amine] | < 100 nM |
| Cc1nc(-c2ccccc2C(F)(F)F)nc(Nc2n[nH]c3c(F)cccc23)c1C [II-27, [5,6-Dimethyl-2-(2-trifluoromethyl-phenyl)-pyrimidin-4-yl]-(7-fluoro-1H-indazol-3-yl)-amine] | < 100 nM |
| Cc1nc(-c2ccccc2C(F)(F)F)nc(Nc2n[nH]c3c(F)cc(F)cc23)c1C [II-28, (5,7-Difluoro-1H-indazol-3-yl)-[5,6-Dimethyl-2-(2-trifluoromethyl-phenyl)-pyrimidin-4-yl]-amine] | < 100 nM |
| Cc1nc(-c2ccccc2Cl)nc(Nc2n[nH]c3c(F)cc(F)cc23)c1C [II-29, [2-(2-Chlorophenyl)-5,6-dimethyl-pyrimidin-4-yl]-(5,7-difluoro-1H-indazol-3-yl)-amine] | < 100 nM |
| Cc1nc(-c2ccccc2Cl)nc(Nc2n[nH]c3c(F)cccc23)c1C [II-30, [2-(2-Chlorophenyl)-5,6-dimethyl-pyrimidin-4-yl]-(7-fluoro-1H-indazol-3-yl)-amine] | < 100 nM |
| Cc1nc(-c2ccccc2Cl)nc(Nc2n[nH]c3ccc(F)cc23)c1C [II-31, [2-(2-Chlorophenyl)-5,6-dimethyl-pyrimidin-4-yl]-(5-fluoro-1H-indazol-3-yl)-amine] | < 100 nM |
| Cc1nc(-c2ccc(Cl)cc2Cl)nc(Nc2n[nH]c3ccccc23)c1C [II-32, [2-(2,4-Dichlorophenyl)-5,6-dimethyl-pyrimidin-4-yl]-(1H-indazol-3-yl)-amine] | 100 to 1000 nM |
| Cc1cc(Nc2nc(-c3ccccc3-c3ccccc3)nc3ccccc23)n[nH]1 [II-43, (2-Biphenyl-2-yl-quinazolin-4-yl)-(5-methyl-2H-pyrazol-3-yl)-amine] | 1000 to 20000 nM |
| Cc1cc(Nc2nc(-c3ccccc3O)nc3ccccc23)n[nH]1 [II-44, [2-(2-Hydroxyphenyl)-quinazolin-4-yl]-(5-Methyl-2H-pyrazol-3-yl)-amine] | 100 to 1000 nM |
| CCOc1ccccc1-c1nc(Nc2cc(C)[nH]n2)c2ccccc2n1 [II-45, [2-(2-Ethoxyphenyl)-quinazolin-4-yl]-(5-Methyl-2H-pyrazol-3-yl)-amine] | 100 to 1000 nM |
| FC(F)(F)c1ccccc1-c1nc(Nc2cc(-c3cccs3)[nH]n2)c2ccccc2n1 [II-46, [5-(Thiophen-2-yl)-2H-pyrazol-3-yl]-[2-(2-trifluoromethylphenyl)-quinazolin-4-yl]-amine] | < 100 nM |
| FC(F)(F)c1ccccc1-c1nc(Nc2n[nH]cc2-c2cccs2)c2ccccc2n1 [II-47, [4-(Thiophen-2-yl)-2H-pyrazol-3-yl]-[2-(2-trifluoromethylphenyl)-quinazolin-4-yl]-amine] | 1000 to 20000 nM |
| FC(F)(F)c1ccccc1-c1nc(Nc2n[nH]cc2-c2ccccc2)c2ccccc2n1 [II-48, (4-Phenyl-2H-pyrazol-3-yl)-[2-(2-trifluoromethylphenyl)-quinazolin-4-yl]-amine] | 1000 to 20000 nM |
| CC(C)(C)c1cc(Nc2nc(-c3ccccc3C(F)(F)F)nc3ccccc23)n[nH]1 [II-49, (5-tert-Butyl-2H-pyrazol-3-yl)-[2-(2-trifluoromethyl-phenyl)-quinazolin-4-yl]-amine] | 100 to 1000 nM |
| FC(F)(F)c1ccccc1-c1nc(Nc2cc(-c3ccccc3)[nH]n2)c2ccccc2n1 [II-50, (5-Phenyl-2H-pyrazol-3-yl)-[2-(2-trifluoromethylphenyl)-quinazolin-4-yl]-amine] | 100 to 1000 nM |
